Data published in ChEMBL document CHEMBL1136098, “Semisynthetic preparation of amentoflavone: A negative modulator at GABA(A) receptors” (Bioorg Med Chem Lett, 2003).

Assays:
D(3) dopamine receptor = D(3) dopamine receptor (Homo sapiens, UniProt P35462); experiment: Binding affinity (in vitro) against Dopamine receptor D3 using radio-ligand binding assay; set-up: species or system Sus scrofa
[1] = target: GABA-A receptor; anion channel; experiment: Binding affinity for human cloned GABA-A benzodiazepine receptor; assay type: protein-complex assay
[2] = target: T1, GABA-A receptor; alpha-1/beta-2/gamma-2 (Homo sapiens, UniProt P14867+P18507+P47870); experiment: Effective concentration against human recombinant GABA-A receptor alpha-1-beta-2-gamma-2 subunits expressed in Xenopus oocytes; assay type: cell-based, Oocyte
T1 sequence (P14867 whole entry): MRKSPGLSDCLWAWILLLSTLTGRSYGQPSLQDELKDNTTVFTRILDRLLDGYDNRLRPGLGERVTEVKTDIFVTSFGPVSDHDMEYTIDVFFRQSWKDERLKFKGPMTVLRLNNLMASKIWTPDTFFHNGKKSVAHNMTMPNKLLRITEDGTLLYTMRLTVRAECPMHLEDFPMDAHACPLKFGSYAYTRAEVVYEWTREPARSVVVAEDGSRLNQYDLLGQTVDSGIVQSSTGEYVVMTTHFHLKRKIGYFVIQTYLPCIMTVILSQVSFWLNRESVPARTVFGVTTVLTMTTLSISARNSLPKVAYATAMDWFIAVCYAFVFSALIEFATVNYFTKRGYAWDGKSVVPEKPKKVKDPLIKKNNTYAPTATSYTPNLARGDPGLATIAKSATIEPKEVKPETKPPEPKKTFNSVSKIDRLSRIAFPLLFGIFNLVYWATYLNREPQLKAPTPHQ
T1 sequence (P47870 whole entry): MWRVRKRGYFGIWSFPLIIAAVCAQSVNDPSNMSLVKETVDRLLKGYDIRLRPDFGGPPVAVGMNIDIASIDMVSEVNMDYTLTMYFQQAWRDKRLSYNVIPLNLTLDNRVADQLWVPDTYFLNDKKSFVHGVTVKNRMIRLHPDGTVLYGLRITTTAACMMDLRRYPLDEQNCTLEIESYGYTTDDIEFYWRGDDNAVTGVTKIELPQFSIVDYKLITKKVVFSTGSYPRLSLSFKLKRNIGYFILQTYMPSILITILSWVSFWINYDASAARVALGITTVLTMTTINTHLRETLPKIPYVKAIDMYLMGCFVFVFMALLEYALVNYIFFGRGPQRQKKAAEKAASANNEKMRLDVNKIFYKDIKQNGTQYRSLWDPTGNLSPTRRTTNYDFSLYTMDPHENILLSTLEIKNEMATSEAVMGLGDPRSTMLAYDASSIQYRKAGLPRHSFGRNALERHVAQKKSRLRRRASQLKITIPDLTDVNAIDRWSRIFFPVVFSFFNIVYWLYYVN
T1 sequence (P18507 whole entry): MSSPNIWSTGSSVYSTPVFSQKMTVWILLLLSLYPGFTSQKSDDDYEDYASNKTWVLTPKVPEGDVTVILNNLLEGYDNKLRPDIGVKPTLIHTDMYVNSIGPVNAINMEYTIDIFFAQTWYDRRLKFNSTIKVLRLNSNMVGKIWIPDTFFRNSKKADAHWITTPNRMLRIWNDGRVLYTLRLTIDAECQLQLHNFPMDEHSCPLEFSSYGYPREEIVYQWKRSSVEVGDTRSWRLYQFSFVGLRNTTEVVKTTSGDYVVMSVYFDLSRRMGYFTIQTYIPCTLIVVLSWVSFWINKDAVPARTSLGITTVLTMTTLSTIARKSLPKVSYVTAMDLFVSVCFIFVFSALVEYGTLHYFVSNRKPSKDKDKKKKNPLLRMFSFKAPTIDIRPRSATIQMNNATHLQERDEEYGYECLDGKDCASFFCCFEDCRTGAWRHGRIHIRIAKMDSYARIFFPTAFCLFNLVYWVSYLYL

[3] = target: GABA-A receptor; anion channel; experiment: Inhibition of [3H]flunitrazepam binding to rat brain GABA-A benzodiazepine receptor
[4] = target: Delta-type opioid receptor (Sus scrofa, UniProt P79291); experiment: Binding affinity (in vitro) against Opioid receptor delta 1 using radio-ligand binding assay
Sequence of Delta-type opioid receptor (P79291 whole entry): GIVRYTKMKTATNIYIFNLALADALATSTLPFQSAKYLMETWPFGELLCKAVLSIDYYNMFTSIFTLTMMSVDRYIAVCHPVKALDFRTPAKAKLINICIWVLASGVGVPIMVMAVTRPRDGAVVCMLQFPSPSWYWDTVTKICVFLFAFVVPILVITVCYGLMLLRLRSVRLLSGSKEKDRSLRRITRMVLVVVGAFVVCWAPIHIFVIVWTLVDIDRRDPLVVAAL

[5] = target: 5-hydroxytryptamine receptor 1D (Sus scrofa, UniProt P79400); experiment: Binding affinity (in vitro) against 5-hydroxytryptamine 1D receptor alpha using radio-ligand binding assay
Sequence of 5-hydroxytryptamine receptor 1D (P79400 whole entry): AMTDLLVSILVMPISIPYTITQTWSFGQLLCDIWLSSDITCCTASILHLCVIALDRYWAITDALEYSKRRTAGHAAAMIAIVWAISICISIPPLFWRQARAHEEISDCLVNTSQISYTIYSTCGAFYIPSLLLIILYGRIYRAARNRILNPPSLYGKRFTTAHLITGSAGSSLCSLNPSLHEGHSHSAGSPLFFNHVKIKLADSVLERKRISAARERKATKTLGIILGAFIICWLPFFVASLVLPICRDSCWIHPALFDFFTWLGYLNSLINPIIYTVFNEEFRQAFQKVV

[6] = target: GABA-A receptor; anion channel; experiment: Binding affinity for GABA-A benzodiazepine receptor; assay type: protein-complex assay

Sequence of D(3) dopamine receptor (P35462 whole entry): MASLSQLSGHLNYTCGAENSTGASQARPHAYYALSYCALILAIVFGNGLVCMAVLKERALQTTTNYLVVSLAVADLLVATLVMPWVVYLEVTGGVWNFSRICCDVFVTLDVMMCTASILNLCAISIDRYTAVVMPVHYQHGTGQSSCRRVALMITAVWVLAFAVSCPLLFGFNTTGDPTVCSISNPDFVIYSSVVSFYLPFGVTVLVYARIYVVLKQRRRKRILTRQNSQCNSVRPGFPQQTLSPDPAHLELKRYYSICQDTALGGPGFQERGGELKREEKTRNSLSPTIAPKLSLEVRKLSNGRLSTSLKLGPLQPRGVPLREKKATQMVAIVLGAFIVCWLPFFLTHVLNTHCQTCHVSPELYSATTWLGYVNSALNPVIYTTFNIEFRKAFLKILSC

Ki (D(3) dopamine receptor): 1240 nM
Ki [1]: 6 nM
EC50 [2]: 3600 nM
IC50 [3]: 14.9 nM
Ki [4]: 36.5 nM
Ki [5]: 4090 nM
Ki [6]: 6 nM
SMILES: O=c1cc(-c2ccc(O)c(-c3c(O)cc(O)c4c(=O)cc(-c5ccc(O)cc5)oc34)c2)oc2cc(O)cc(O)c12 [AMENTOFLAVONE]
